Source: patent publication US6706757B2, “Chroman derivatives as 5-hydroxytryptamine-6 ligands” (Wyeth, priority 2001, dated 2004)
Counter-ions that a name gives are not always drawn.

Target: T1, human cloned 5-HT6 receptors (Homo sapiens, UniProt P50406)
T1 construct: expressed in transfected cells; host or cells: HeLa cells (membrane preparation)
Experiment: 5-HT6 binding affinity, [3H]-LSD displacement on membranes of Hela cells expressing human cloned 5-HT6 receptors
Details: [3H]-LSD 3.0 nM, Hela cell membranes, 120 min at room temperature
Description: The affinity of test compounds for the serotonin 5-HT6 receptor is evaluated in the following manner. Cultured Hela cells expressing human cloned 5-HT6 receptors are harvested and centrifuged at low speed (1,000×g) for 10.0 min to remove the culture media. The harvested cells are suspended in half volume of fresh physiological phosphate buffered saline solution and recentrifuged at the same speed. This operation is repeated. The collected cells are then homogenized in ten volumes of 50 mM Tris.HCl (pH 7.4) and 0.5 mM EDTA. The homogenate is centrifuged at 40,000×g for 30.0 min and the precipitate is collected. The obtained pellet is resuspended in 10 volumes of Tris.HCl buffer and recentrifuged at the same speed. The final pellet is suspended in a small volume of Tris.HCl buffer and the tissue protein content is determined in aliquots of 10-25 μl volumes. Bovine Serum Albumin is used as the standard in the protein determination according to the method described in Lowry et al., J. Biol. Chem., 193:265 (1951). The volume of the suspended cell membranes is adjusted to give a tissue protein concentration of 1.0 mg/ml of suspension. The prepared membrane suspension (10 times concentrated) is aliquoted in 1.0 ml volumes and stored at −70° C. until used in subsequent binding experiments.
Binding experiments are performed in a 96 well microtiter plate format, in a total volume of 200 μl. […] The test compounds are added in 20.0 μl volume.
The reaction is allowed to proceed in the dark for 120 min at room temperature, at which time, the bound ligand-receptor complex is filtered off on a 96 well unifilter with a Packard Filtermate® 196 Harvester. The bound complex caught on the filter disk is allowed to air dry and the radioactivity is measured in a Packard TopCount® equipped with six photomultiplier detectors, after the addition of 40.0 μl Microscint®-20 scintillant to each shallow well. The unifilter plate is heat-sealed and counted in a PackardTopCount® with a tritium efficiency of 31.0%.
Binding in the presence of varying concentrations of test compound is expressed as a percentage of specific binding in the absence of test compound. The results are plotted as log % bound versus log concentration of test compound. […] A linear regression line of data points is plotted, from which the IC50 value is determined and the Ki value is determined based upon the following equation: […]
where L is the concentration of the radioactive ligand used and KD is the dissociation constant of the ligand for the receptor, both expressed in nM.

T1 sequence (P50406 whole entry): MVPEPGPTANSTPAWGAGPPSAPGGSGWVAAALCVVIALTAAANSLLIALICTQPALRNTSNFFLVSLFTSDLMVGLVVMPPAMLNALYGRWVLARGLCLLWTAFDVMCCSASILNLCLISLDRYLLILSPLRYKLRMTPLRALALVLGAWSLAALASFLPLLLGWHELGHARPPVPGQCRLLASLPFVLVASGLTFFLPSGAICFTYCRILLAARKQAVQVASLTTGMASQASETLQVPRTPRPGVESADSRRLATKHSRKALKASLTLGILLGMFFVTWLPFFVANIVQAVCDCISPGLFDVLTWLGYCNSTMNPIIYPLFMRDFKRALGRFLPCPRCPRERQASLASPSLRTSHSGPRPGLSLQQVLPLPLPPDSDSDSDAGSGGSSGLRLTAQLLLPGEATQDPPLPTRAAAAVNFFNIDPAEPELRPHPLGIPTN

Ki | SMILES
6 nM | C[C@@H](NCC1CCc2ccc(NS(=O)(=O)c3ccc(C(F)(F)F)cc3)cc2O1)c1ccccc1 (stereo partly drawn) [Example 43, N-[2-({[(1R)-1-phenylethyl]amino}methyl)-3,4-dihydro-2H-chromen-7-yl]-4-(trifluoromethyl)benzenesulfonamide]
9 nM | O=S(=O)(Nc1ccc2c(c1)OC(CN1CCSCC1)CC2)c1ccccc1 (stereo not shown) [Example 26, N-[2-(thiomorpholin-4-ylmethyl)-3,4-dihydro-2H-chromen-7-yl]benzenesulfonamide]
11 nM | O=S(=O)(Nc1ccc2c(c1)OC(CNCCCO)CC2)c1ccc(Cl)cc1 (stereo not shown) [Example 31, 4-chloro-N-(2-{[(3-hydroxypropyl)amino]methyl}-3,4-dihydro-2H-chromen-7-yl)benzenesulfonamide]
11 nM | COc1ccc(S(=O)(=O)N(C)c2ccc3c(c2)OC(CN[C@H](C)c2ccccc2)CC3)cc1OC (stereo partly drawn) [Example 54, 3,4-dimethoxy-N-methyl-N-[2-({[(1R)-1-phenylethyl]amino}methyl)-3,4-dihydro-2H-chromen-7-yl]benzenesulfonamide]
11 nM | C[C@@H](NC[C@@H]1CCc2ccc(NS(=O)(=O)c3ccc(N)cc3)cc2O1)c1ccccc1 [Example 47B, 4-Amino-N-[(2S)-2-({[(1R)-1-phenylethyl]amino}methyl)-3,4-dihydro-2H-chromen-7-yl]benezenesulfonamide Hydrochloride]
37 nM | C[C@@H](NC[C@H]1CCc2ccc(NS(=O)(=O)c3cccc4ccccc34)cc2O1)c1ccccc1 [Example 46A, N-[(2R)-2-({[(1R)-1-phenylethyl]amino}-methyl)-3,4-dihydro-2H-chromen-7-yl)naphthalene-1-sulfonamide Hydrochloride]
8 nM | CC(C)CCCC(C)NCC1CCc2ccc(NS(=O)(=O)c3ccccc3)cc2O1 (stereo not shown) [Example 21, N-(2-{[(1,5-dimethylhexyl)amino]methyl}-3,4-dihydro-2H-chromen-7-yl)benzenesulfonamide]
1 nM | C[C@@H](NCC1CCc2ccc(NS(=O)(=O)c3ccc(N)cc3)cc2O1)c1ccccc1 (stereo partly drawn) [Example 44, 4-amino-N-[2-({[(1R)-1-phenylethyl]amino}methyl)-3,4-dihydro-2H-chromen-7-yl]benzenesulfonamide]
35 nM | O=S(=O)(Nc1ccc2c(c1)OC(CN1CCCCC1CCO)CC2)c1ccccc1 (stereo not shown) [Example 23, N-(2-{[2-(2-hydroxyethyl)piperidin-1-yl]methyl}-3,4-dihydro-2H-chromen-7-yl)benzenesulfonamide]
10 nM | C[C@H](NCC1CCc2ccc(NS(=O)(=O)c3ccccc3)cc2O1)c1ccccc1 (stereo partly drawn) [Example 14, N-[2-({[(1S)-1-phenylethyl]amino}methyl)-3,4-dihydro-2H-chromen-7-yl]benzenesulfonamide]
17 nM | C[C@@H](NC[C@@H]1CCc2ccc(NS(=O)(=O)c3ccccc3)cc2O1)c1ccccc1 [Example 45B, N[(2S)-2-({[(1R)-1-Phenylethyl]amino}methyl)-3,4-dihydro-2H-chromen-7-yl]phenylsulfonamide]
2 nM | C[C@@H](NCC1CCc2ccc(NS(=O)(=O)c3ccc(Cl)s3)cc2O1)c1ccccc1 (stereo partly drawn) [Example 42, 5-chloro-N-[2-({[(1R)-1-phenylethyl]amino}methyl)-3,4-dihydro-2H-chromen-7-yl]thiophene-2-sulfonamide]
45 nM | Cc1c(S(=O)(=O)Nc2ccc3c(c2)OC(CN[C@H](C)c2ccccc2)CC3)sc2ccc(Cl)cc12 (stereo partly drawn) [Example 36, 5-chloro-3-methyl-N-[2-({[(1R)-1-phenylethyl]amino}methyl)-3,4-dihydro-2H-chromen-7-yl]-1-benzothiophene-2-sulfonamide]
49 nM | O=S(=O)(Nc1ccc2c(c1)OC(CNCCCO)CC2)c1ccc(F)cc1 (stereo not shown) [Example 30, 4-fluoro-N-(2-{[(3-hydroxypropyl)amino]methyl}-3,4-dihydro-2H-chromen-7-yl)benzenesulfonamide]
5 nM | O=S(=O)(Nc1ccc2c(c1)OC(CN[C@@H](CO)c1ccccc1)CC2)c1ccccc1 (stereo partly drawn) [Example 16, N-[2-({[(1R)-2-hydroxy-1-phenylethyl]amino}methyl)-3,4-dihydro-2H-chromen-7-yl]benzenesulfonamide]
7 nM | O=S(=O)(Nc1ccc2c(c1)OC(CNC1CCc3ccccc31)CC2)c1ccccc1 (stereo not shown) [Example 13, N-{2-[(2,3-dihydro-1H-inden-1-ylamino)methyl]-3,4-dihydro-2H-chromen-7-yl}benzenesulfonamide]
2 nM | C[C@@H](NC[C@@H]1CCc2ccc(NS(=O)(=O)c3cccc4ccccc34)cc2O1)c1ccccc1 [Example 46B, N-[(2S)-2({[(1R)-1-phenylethyl]amino}methyl)-3,4-dihydro-2H-chromen-7-yl]naphthalene-1-sulfonamide Hydrochloride]
4 nM | C[C@@H](NCC1CCc2ccc(NS(=O)(=O)c3cccc4ccccc34)cc2O1)c1ccccc1 (stereo partly drawn) [Example 41, N-[2-({[(1R)-1-phenylethyl]amino}methyl)-3,4-dihydro-2H-chromen-7-yl]naphthalene-1-sulfonamide]
4 nM | COc1cccc(CNCC2CCc3ccc(NS(=O)(=O)c4ccccc4)cc3O2)c1 (stereo not shown) [Example 6, N-(2-{[(3-methoxybenzyl)amino]methyl}-3,4-dihydro-2H-chromen-7-yl)benzenesulfonamide]
5 nM | O=S(=O)(Nc1ccc2c(c1)OC(CNCCCO)CC2)c1ccc2ccccc2c1 (stereo not shown) [Example 28, N-(2-{[(3-Hydroxypropyl)amino]methyl}-3,4-dihydro-2H-chromen-7-yl)naphthalene-2-sulfonamide]
26 nM | O=S(=O)(Nc1ccc2c(c1)OC(CN1CCOCC1)CC2)c1ccccc1 (stereo not shown) [Example 25, N-[2-(morpholin-4-ylmethyl)-3,4-dihydro-2H-chromen-7-yl]benzenesulfonamide]
1 nM | C[C@@H](NC[C@H]1CCc2ccc(NS(=O)(=O)c3ccccc3)cc2O1)c1ccccc1 [Example 45A]
17 nM | O=S(=O)(Nc1ccc2c(c1)OC(CNCc1ccncc1)CC2)c1ccccc1 (stereo not shown) [Example 15, N-(2-{[(pyridin-4-ylmethyl)amino]methyl}-3,4-dihydro-2H-chromen-7-yl)benzenesulfonamide]
6 nM | CC(CCc1ccccc1)NCC1CCc2ccc(NS(=O)(=O)c3ccccc3)cc2O1 (stereo not shown) [Example 20, N-(2-{[(1-methyl-3-phenylpropyl)amino]methyl}-3,4-dihydro-2H-chromen-7-yl)benzenesulfonamide]
5 nM | C[C@@H](NCC1CCc2ccc(N(C)S(=O)(=O)c3ccc(Cl)cc3)cc2O1)c1ccccc1 (stereo partly drawn) [Example 53, 4-chloro-N-methyl-N-[2-({[(1R)-1-phenylethyl]amino}methyl)-3,4-dihydro-2H-chromen-7-yl]benzenesulfonamide]
5 nM | C[C@@H](NCC1CCc2ccc(NS(=O)(=O)c3cccc4nonc34)cc2O1)c1ccccc1 (stereo partly drawn) [Example 32, N-[2-({[(1R)-1-Phenylethyl]amino}methyl)-3,4-dihydro-2H-chromen-7-yl]-2,1,3-benzoxadiazole-4-sulfonamide]
84 nM | O=S(=O)(Nc1ccc2c(c1)OC(CNC(Cc1ccccc1)c1ccccc1)CC2)c1ccccc1 (stereo not shown) [Example 17, N-(2-{[(1,2-diphenylethyl)amino]methyl}-3,4-dihydro-2H-chromen-7-yl)benzenesulfonamide]
4 nM | C[C@@H](NCC1CCc2ccc(N(C)S(=O)(=O)c3ccc(N)cc3)cc2O1)c1ccccc1 (stereo partly drawn) [Example 56, 4-amino-N-methyl-N-[2-({[(1R)-1-phenylethyl]amino}methyl)-3,4-dihydro-2H-chromen-7-yl]benzenesulfonamide]
41 nM | CC(C)(CO)NCC1CCc2ccc(NS(=O)(=O)c3ccccc3)cc2O1 (stereo not shown) [Example 18, N-(2-{[(2-hydroxy-1,1-dimethylethyl)amino]methyl}-3,4-dihydro-2H-chromen-7-yl)benzenesulfonamide]
7 nM | C[C@@H](NCC1CCc2ccc(N(C)S(=O)(=O)c3ccc(F)cc3)cc2O1)c1ccccc1 (stereo partly drawn) [Example 52, 4-fluoro-N-methyl-N-[2-({[(1R)-1-phenylethyl]amino}methyl)-3,4-dihydro-2H-chromen-7-yl]benzenesulfonamide]

SMILES | Ki
CCCCOCCCNCC1CCc2ccc(NS(=O)(=O)c3ccccc3)cc2O1 (stereo not shown) [Example 7, N-(2-{[(3-butoxypropyl)amino]methyl}-3,4-dihydro-2H-chromen-7-yl)benzenesulfonamide] | 2 nM
